Measurements as given in ChEMBL document CHEMBL3867448, “Targeted Isolation of Indolopyridoquinazoline Alkaloids from Conchocarpus fontanesianus Based on Molecular Networks” (2016).

Columns and labels:
Candida albicans [1] = assay: Antifungal activity against Candida albicans DSY2621 by MTT assay; assay type: functional
Candida albicans [2] = assay: Antifungal activity against wild type Candida albicans CAF2-1 by MTT assay; assay type: functional

MIC (Candida albicans [1]) [µg] | MIC (Candida albicans [2]) [µg] | Compound
0.0006 | 0.0006 | Clc1ccc(COC(Cn2ccnc2)c2ccc(Cl)cc2Cl)c(Cl)c1 (centres undefined) [MICONAZOLE]
15 |  | COc1cccc2c3c(c(=O)[nH]c12)C=CC(C)(C)O3
15 |  | CC1(C)C=Cc2c(O)nc3ccccc3c2O1 [FLINDERSINE]
